Values joined by “and” are separate entries in the source; they are usually repeats but may differ in a detail not shown here. Equal values may be shown once. Read-outs that look alike come from different tables or passages of the source.
Test system: SRS-A-mediated bronchoconstriction after ovalbumin (OVA) challenge in guinea pigs
Test: SRS-A-mediated (OVA-induced) bronchoconstriction in anaesthetized, mechanically ventilated sensitized guinea pigs
Assay type: in vivo, guinea pig
Conditions: Cavia porcellus
Protocol: Male Dunkin Hartley guinea pigs; body weight 200-250 g at sensitization and 350-500 g when performing the experiments. Ovalbumin (OVA) was used as allergen for active sensitization. Therefore, 20 μg OVA together with 20 mg Al(OH)3 suspended in 0.5 ml 0.9% NaCl-solution (=saline) were administered i.p. to each animal on 2 consecutive days. […] Controls received the drug-free methocel-solution 1 h before OVA-challenge as placebo (n=12). OVA-challenge and lung function measurements were performed in anaesthetized and mechanically ventilated animals. […] To enhance the SRS-A-mediated bronchoconstriction, the animals were pretreated with: indomethacin 10 mg/kg i.v. 20 min before OVA-challenge to block the cyclooxygenase pathway and to enhance the production of lipoxygenase-mediators, mainly leukotrienes. […] The time-effect curve for the delta-%-decrease of compliance and conductance was determined up to 12 min post challenge. Blood pressure and heart rate were monitored to control vitality. The area under the time-delta-%-decrease curves (AUC) was determined for each animal. On basis of the AUC-values, the inhibition of the SRS-A-induced decrease of compliance and conductance was calculated in reference to placebo. […] Measured and calculated ED50-values were compared by an unpaired t-test for statistical significant differences.

Which ED50 (read-out: ED50, inhibition of decrease of airway compliance) does the source give for `O=C(Nc1c(Cl)cncc1Cl)c1ccc(OC(F)F)c(OCC2CC2)c1` [ROFLUMILAST, 3-cyclopropylmethoxy-4-difluoromethoxy-N-(3,5-dichloropyrid-4-yl)-benzamide] here?
Its ED50 is 0.58 mg/kg and 1.45 µmol/kg.

What about the ED50 (read-out: ED50, inhibition of decrease of airway conductance) of the same molecule?
The ED50 was 0.69 mg/kg and 1.73 µmol/kg.

Reference: patent US20050014762A1, “Combination” (priority 2001, published 2005)
